Where two headings read alike, the source gives them in different places. Where a SMILES comes first, the peptide text is derived from it. The star is where a group is joined. Cbz = O=C(OCc1ccccc1)*; CH2F = FC*
Legend:
S5 cells [1] = type: cell-based, Trichoplusia ni
S5 cells [2] = type: cell-based, Trichoplusia ni; remark: listed apart in the source
S5 cells [3] = details: Zhang et al. 2005, cited from earlier work; for Effect of chelator on toxin-induced death: S5 cells pre-treated with chelator, then Cry1Ab toxin
S5 cells [4] = details: Zhang et al. 2005, cited from earlier work; for Effect of osmotic protectant on blebbing and swelling of toxin-exposed cells: 30 mM protectant
H5 cells [5] = type: cell-based, Trichoplusia ni
S5 cells [6] = type: cell-based, Trichoplusia ni; remark: listed apart in the source
H5 cells [7] = details: cultured H5 cells without receptor; Zhang et al. 2005; cited from earlier work
S5 cells [8] = details: either stage of cytotoxicity; shown previously; cited from earlier work

CO/C1=C\C(C)=C\[C@@H](C)[C@@H](O)[C@@H](C)C/C(C)=C/C=C/[C@H](OC)[C@@H]([C@@H](C)[C@@H](O)[C@H](C)[C@@]2(O)C[C@@H](O)[C@H](C)[C@@H](C(C)C)O2)OC1=O [Bafilomycin A]
Cell death (S5 cells [1]): + (key: + = 80 ± 5% cell death; − = no cell death)

C=C1[C@@H](C)[C@H]2[C@H](Cc3ccccc3)NC(=O)[C@]23[C@H](OC(C)=O)/C=C/[C@@](C)(O)C(=O)[C@@H](C)C/C=C/[C@H]3[C@@H]1O [Cytochalasin D]
Cell death (S5 cells [1]): + (key: + = 80 ± 5% cell death; − = no cell death)

O=C(O)CN(CCN(CC(=O)O)CC(=O)O)CC(=O)O [EDTA]
Cell death (S5 cells [1]): − (key: + = 80 ± 5% cell death; − = no cell death) | Effect on Cry1Ab-induced toxicity and cell death (S5 cells [1]): prevented completely | Effect on Cry1Ab-induced cAMP levels (S5 cells [2]): virtually precluded any increase in cAMP levels | Effect on FSK induction of cAMP (S5 cells [2]): precluded FSK induction of cAMP | Effect of chelator on toxin-induced death (S5 cells [3]): completely abolished toxin-induced death

O=C(O)CN(CCOCCOCCN(CC(=O)O)CC(=O)O)CC(=O)O [EGTA]
Cell death (S5 cells [1]): + (key: + = 80 ± 5% cell death; − = no cell death) | Effect of chelator on toxin-induced death (S5 cells [3]): fully susceptible

CC(C)Cn1c(=O)n(C)c(=O)c2[nH]cnc21 [IBMX]
Level of cAMP (S5 cells [2]): did not cause any elevation

O=C(Nc1cccc(C(=O)Nc2ccc(S(=O)(=O)O)c3cc(S(=O)(=O)O)cc(S(=O)(=O)O)c23)c1)Nc1cccc(C(=O)Nc2ccc(S(=O)(=O)O)c3cc(S(=O)(=O)O)cc(S(=O)(=O)O)c23)c1 [NF023]
Effect on Cry1Ab toxicity (S5 cells [1]): did not have any effect

O=C(Nc1cc(C(=O)Nc2ccc(S(=O)(=O)O)cc2S(=O)(=O)O)cc(C(=O)Nc2ccc(S(=O)(=O)O)cc2S(=O)(=O)O)c1)Nc1cc(C(=O)Nc2ccc(S(=O)(=O)O)cc2S(=O)(=O)O)cc(C(=O)Nc2ccc(S(=O)(=O)O)cc2S(=O)(=O)O)c1 [NF449]
Decrease of relative toxicity (cell death) mediated by Cry1Ab (S5 cells [1]): 50%

COC(=O)Nc1nc2ccc(C(=O)c3cccs3)cc2[nH]1 [Nocodazole]
Cell death (S5 cells [1]; S5 cells treated with inhibitor, switched to inhibitor-free buffer before Cry1Ab toxin treatment, percent of dead cells by Trypan blue staining): + (+ = 80 ± 5% cell death)

Cl.NCCc1ccc(S(=O)(=O)F)cc1 [Pefabloc]
Cell death (S5 cells [1]): + (key: + = 80 ± 5% cell death; − = no cell death) | Effect on Cry1Ab-induced toxicity and cell death (S5 cells [1]): had no effect

OC[C@H]1O[C@@](CO)(O[C@H]2O[C@H](CO)[C@@H](O)[C@H](O)[C@H]2O)[C@@H](O)[C@@H]1O [Sucrose, sucrose]
Effect of osmotic protectant on blebbing and swelling of toxin-exposed cells (S5 cells [4]): partially prevented cell swelling

Cc1ccc(S(=O)(=O)N[C@@H](Cc2ccccc2)C(=O)CCl)cc1 [TPCK]
Cell death (S5 cells [1]): + (key: + = 80 ± 5% cell death; − = no cell death) | Effect on Cry1Ab-induced toxicity and cell death (S5 cells [1]): had no effect

COC(=O)C[C@H](NC(=O)[C@H](C)NC(=O)[C@@H](NC(=O)OCc1ccccc1)C(C)C)C(=O)CF [Z-VAD-fmk] (Cbz-Val-Ala-Asp(OMe)-CH2F)
Cell death (S5 cells [1]): + (key: + = 80 ± 5% cell death; − = no cell death) | Effect on Cry1Ab-induced toxicity and cell death (S5 cells [1]): did not suppress

C[C@H]1O[C@@H](n2cnc3c(N)ncnc32)C[C@@H]1OP(=O)(O)OP(=O)(O)O [ddADP, 2′,5′-dideoxy-3′-ADP]
Reduction of number of cells undergoing cell death (S5 cells [1]): 50%

Nc1ncnc2c1nc(Sc1ccc(Cl)cc1)n2[C@@H]1O[C@@H]2COP(=O)(O)O[C@H]2[C@H]1O [pCPT-cAMP]
Cell death with Cry1Ab after pre-treatment (S5 cells [1]): ~100% | Cell death without Cry1Ab treatment (S5 cells [1]): Neither FSK nor pCPT-cAMP alone was sufficient to bring about cell death

OC[C@H]1O[C@H](OC[C@H]2O[C@H](O[C@]3(CO)O[C@H](CO)[C@@H](O)[C@@H]3O)[C@H](O)[C@@H](O)[C@@H]2O)[C@H](O)[C@@H](O)[C@H]1O [raffinose]
Fate of protectant-treated S5 cells after Cry1Ab exposure (S5 cells [3]; raffinose-treated cells): eventually died | Effect of osmotic protectant on blebbing and swelling of toxin-exposed cells (S5 cells [4]): arrested in the blebbing stage and did not swell

Cry1Ab toxin
cAMP production (S5 cells [2]): increased in a time-dependent manner | cAMP levels (H5 cells [5]): did not change | Externalization of phosphatidylserine or DNA fragmentation (S5 cells [6]): no externalization of phosphatidylserine or DNA fragmentation was observed | Time to cell swelling and lysis (S5 cells [4]; S5 cells): ≤ 40 min | Time to membrane blebbing after toxin exposure (S5 cells [4]; S5 cells): ≤ 20 min | Effect of toxin on cells (H5 cells [7]): not affected | Internalization of toxin (S5 cells [8]): not internalized
